Activity calls are given as the source filed them. No cut-off for these calls is given here.

We go through 1 compound from ChEMBL document CHEMBL4011611, “Plumbagin reduces osteopontin-induced invasion through inhibiting the Rho-associated kinase signaling pathway in A549 cells and suppresses osteopontin-induced lung metastasis in BalB/c mice” (Bioorg Med Chem Lett, 2017).

For data set [1], the species on record is Homo sapiens. Description: Inhibition of FAK/AKT/ROCK in human H1299 cells assessed as reduction in osteopontin-induced cell motility at 1 to 2 uM preincubated for 30 mins followed by osteopontin addition measured after 24 hrs by Diff-quick staining based matrigel-mediated Boyden chamber assay.
Data set [2] concerns A549. In words: Anticancer activity against human A549 cells xenografted in BalB/c nude mouse assessed as reduction in osteopontin-induced lung metastasis at 5 mg/kg, ip administered once daily for 8 weeks by India ink staining based method. The data set is classed as functional, organism-based. A general note: A xenograft is tissue or cells of one species grown in another, often human tumour cells in immunodeficient mice.

For data set [3], the system named is A549. In words: Inhibition of FAK/AKT/ROCK in human A549 cells assessed as reduction in osteopontin-induced cell motility at 2 uM preincubated for 30 mins followed by osteopontin addition measured after 24 hrs by Diff-quick staining based matrigel-mediated Boyden chamber assay relative to control.
In data set [4] the test system is A549. Description: Effect on total FAK expression levels in human A549 cells at 1 to 2 uM measured after 15 mins by Western blot method. The data set is classed as ADME, cell-based. The following applies: a549, 0.25 h. On the technique in general: Immunoblotting shows a protein as a band on a membrane.
Data set [5] deals with RAC-alpha serine/threonine-protein kinase (Homo sapiens) (UniProt P31749). Description: Inhibition of osteopontin-induced AKT phosphorylation in human A549 cells at 1 to 2 uM after 15 mins by Western blot method. The data set is classed as cell-based.
Data set [6] deals with A549. In words: Effect on total cofilin protein expression level in human A549 cells at 1 to 2 uM after 24 hrs by Western blot method. The class given is ADME, cell-based. The following applies: a549, 24 h.
Data set [7] can be described thus: Cytotoxicity against human A549 cells after 24 hrs by MTT assay. To be noted: read-out: MNCC. The class given is cell-based.
The test system of data set [8] is Mus musculus. Description: Toxicity in BalB/c nude mouse assessed as change in body weight at 5 mg/kg, ip administered once daily for 8 weeks measured every week of compound dosing. The data set is classed as organism-based. The following applies: in vivo, 1344 h.
In data set [9] the test system is A549. In words: Cytotoxicity against human A549 cells assessed as reduction in cell viability at 2 to 8 uM after 24 hrs by MTT assay. To be noted: a549, 24 h. The data set is classed as cell-based.
Data set [10] addresses Focal adhesion kinase 1 (Homo sapiens) (UniProt Q05397). Description: Inhibition of osteopontin-induced FAK phosphorylation in human A549 cells at 1 to 2 uM after 15 mins by Western blot method. The class given is cell-based.
For data set [11], the system named is A549. Description: Effect on total LIMK2 expression level in human A549 cells at 1 to 2 uM after 24 hrs by Western blot method. The data set is classed as ADME, cell-based. The following applies: a549, 24 h.
The species named for data set [12] is Homo sapiens. Description: Inhibition of FAK/AKT/ROCK in human H1299 cells assessed as reduction in osteopontin-induced cell invasion at 1 to 2 uM preincubated for 30 mins followed by osteopontin addition measured after 24 hrs by Diff-quick staining based matrigel-mediated Boyden chamber assay.
Data set [13] deals with A549. In words: Inhibition of FAK/AKT/ROCK in human A549 cells assessed as reduction in osteopontin-induced LIMK1/2 phosphorylation after 24 hrs by Western blot method. The data set is classed as cell-based.
The test system of data set [14] is A549. Description: Inhibition of FAK/AKT/ROCK in human A549 cells assessed as reduction in osteopontin-induced cell motility at 1 uM preincubated for 30 mins followed by osteopontin addition measured after 24 hrs by Diff-quick staining based matrigel-mediated Boyden chamber assay relative to control.
Data set [15] deals with A549. In words: Anti-invasive activity in human A549 cells assessed as reduction in osteopontin-induced ROCK1 expression after 24 hrs by Western blot method. The class given is functional, cell-based.
Data set [16] concerns A549. In words: Inhibition of FAK/AKT/ROCK in human A549 cells assessed as reduction in osteopontin-induced cell invasion at 1 uM preincubated for 30 mins followed by osteopontin addition measured after 24 hrs by Diff-quick staining based matrigel-mediated Boyden chamber assay relative to control.
The test system of data set [17] is A549. In words: Effect on total AKT expression level in human A549 cells at 1 to 2 uM after 15 mins by Western blot method. The class given is ADME, cell-based. To be noted: a549, 0.25 h.
Data set [18] relates to A549. Description: Inhibition of FAK/AKT/ROCK in human A549 cells assessed as reduction in osteopontin-induced cofilin phosphorylation after 24 hrs by Western blot method. The class given is cell-based.
Data set [19] has as its system A549. In words: Inhibition of FAK/AKT/ROCK in human A549 cells assessed as reduction in osteopontin-induced lamellipodia formation at 2 uM after 24 hrs by rhodamine phalloidin/DAPI staining based confocal microscopic analysis. The data set is classed as cell-based.
Data set [20] deals with A549. Description: Inhibition of FAK/AKT/ROCK in human A549 cells assessed as reduction in osteopontin-induced cell invasion at 2 uM preincubated for 30 mins followed by osteopontin addition measured after 24 hrs by Diff-quick staining based matrigel-mediated Boyden chamber assay relative to control.

Sequence of Focal adhesion kinase 1 (Homo sapiens) (Q05397 2-1052 limits assumed): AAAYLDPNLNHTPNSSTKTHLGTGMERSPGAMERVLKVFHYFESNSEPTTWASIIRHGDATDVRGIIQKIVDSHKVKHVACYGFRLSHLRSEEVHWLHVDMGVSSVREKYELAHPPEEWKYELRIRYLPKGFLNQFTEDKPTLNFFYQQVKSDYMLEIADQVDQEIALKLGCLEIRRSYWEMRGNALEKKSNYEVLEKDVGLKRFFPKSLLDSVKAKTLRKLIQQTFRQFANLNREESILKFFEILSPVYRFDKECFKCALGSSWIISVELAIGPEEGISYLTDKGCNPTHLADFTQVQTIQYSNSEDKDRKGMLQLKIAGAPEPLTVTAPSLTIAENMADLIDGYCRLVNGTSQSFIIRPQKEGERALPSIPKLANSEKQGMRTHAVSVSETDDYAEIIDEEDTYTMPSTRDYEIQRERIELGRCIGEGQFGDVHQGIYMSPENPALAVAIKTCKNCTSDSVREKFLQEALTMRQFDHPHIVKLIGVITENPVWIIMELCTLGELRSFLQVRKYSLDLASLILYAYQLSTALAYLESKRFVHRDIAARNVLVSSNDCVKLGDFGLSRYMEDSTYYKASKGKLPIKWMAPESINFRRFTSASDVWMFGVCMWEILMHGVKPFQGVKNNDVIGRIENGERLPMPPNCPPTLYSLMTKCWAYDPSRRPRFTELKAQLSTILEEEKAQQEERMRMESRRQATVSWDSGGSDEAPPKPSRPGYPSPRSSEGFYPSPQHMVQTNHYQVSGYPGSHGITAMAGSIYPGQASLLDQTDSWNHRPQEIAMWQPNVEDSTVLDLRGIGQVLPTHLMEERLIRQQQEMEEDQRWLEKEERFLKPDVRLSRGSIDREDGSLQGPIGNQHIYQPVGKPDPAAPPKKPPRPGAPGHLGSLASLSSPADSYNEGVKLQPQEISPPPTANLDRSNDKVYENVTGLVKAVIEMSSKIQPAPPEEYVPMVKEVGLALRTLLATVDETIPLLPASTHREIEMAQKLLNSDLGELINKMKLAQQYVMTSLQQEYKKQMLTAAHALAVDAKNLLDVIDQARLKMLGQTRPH
Sequence of RAC-alpha serine/threonine-protein kinase (Homo sapiens) (P31749 whole entry): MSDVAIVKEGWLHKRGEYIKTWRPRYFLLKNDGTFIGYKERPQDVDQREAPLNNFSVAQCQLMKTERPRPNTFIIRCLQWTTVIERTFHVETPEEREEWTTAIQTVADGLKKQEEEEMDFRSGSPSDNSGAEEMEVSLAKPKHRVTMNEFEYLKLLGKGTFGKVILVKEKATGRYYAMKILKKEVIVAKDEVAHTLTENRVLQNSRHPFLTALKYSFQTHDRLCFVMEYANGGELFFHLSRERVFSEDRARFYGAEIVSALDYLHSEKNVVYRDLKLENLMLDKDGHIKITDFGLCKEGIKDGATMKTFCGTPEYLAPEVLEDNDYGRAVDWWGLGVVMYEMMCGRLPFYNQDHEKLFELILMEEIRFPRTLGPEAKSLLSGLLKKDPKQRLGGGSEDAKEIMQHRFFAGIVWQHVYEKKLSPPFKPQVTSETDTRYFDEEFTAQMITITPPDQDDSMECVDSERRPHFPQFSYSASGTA

The inhibition is the change of the read-out against control, counted positive when it falls. Take `CC1=CC(=O)c2c(O)cccc2C1=O` [PLUMBAGIN]: the inhibition result in [1], in [5], in data set [10], in [12] and in data set [19] was “Active” in each case. Moreover, the result in data set [2] was Active. Further, the inhibition in [3] is 74%; in data set [13] it was “Dose-dependent effect”; in data set [14], 52%; in [16], 38%; in data set [18], “Dose-dependent effect”; in [20], 67%. The Activity entry was “Non-Toxic” in data set [4]; “Non-Toxic” in data set [6]; “Non-Toxic” in data set [8]; “Dose-dependent effect” in [9]; “Non-Toxic” in [11]; “Dose-dependent effect” in [15]. The Activity result in data set [17] is “Non-Toxic”. Moreover, in data set [7], the MNTC at 24 h is at most 2000 nM.
